Source: patent US8962596B2 (Array BioPharma Inc., priority 2010, dated 2015)

How the values were obtained:
Assay type in all cases: biochemical
[1] = biological target: T1, JAK3 (Homo sapiens, UniProt P52333); experiment: JAK3 Inhibition Assay (Omnia kinase fluorescence peptide substrate assay); conditions: averaged IC50 ranges; assay of Example D; 10 μM (Km app) or 1 mM ATP, 2.5 nM JAK3
T1 construct: purchased Invitrogen Corporation, Carlsbad, Calif; PV4080
T1 sequence (P52333 1-1124): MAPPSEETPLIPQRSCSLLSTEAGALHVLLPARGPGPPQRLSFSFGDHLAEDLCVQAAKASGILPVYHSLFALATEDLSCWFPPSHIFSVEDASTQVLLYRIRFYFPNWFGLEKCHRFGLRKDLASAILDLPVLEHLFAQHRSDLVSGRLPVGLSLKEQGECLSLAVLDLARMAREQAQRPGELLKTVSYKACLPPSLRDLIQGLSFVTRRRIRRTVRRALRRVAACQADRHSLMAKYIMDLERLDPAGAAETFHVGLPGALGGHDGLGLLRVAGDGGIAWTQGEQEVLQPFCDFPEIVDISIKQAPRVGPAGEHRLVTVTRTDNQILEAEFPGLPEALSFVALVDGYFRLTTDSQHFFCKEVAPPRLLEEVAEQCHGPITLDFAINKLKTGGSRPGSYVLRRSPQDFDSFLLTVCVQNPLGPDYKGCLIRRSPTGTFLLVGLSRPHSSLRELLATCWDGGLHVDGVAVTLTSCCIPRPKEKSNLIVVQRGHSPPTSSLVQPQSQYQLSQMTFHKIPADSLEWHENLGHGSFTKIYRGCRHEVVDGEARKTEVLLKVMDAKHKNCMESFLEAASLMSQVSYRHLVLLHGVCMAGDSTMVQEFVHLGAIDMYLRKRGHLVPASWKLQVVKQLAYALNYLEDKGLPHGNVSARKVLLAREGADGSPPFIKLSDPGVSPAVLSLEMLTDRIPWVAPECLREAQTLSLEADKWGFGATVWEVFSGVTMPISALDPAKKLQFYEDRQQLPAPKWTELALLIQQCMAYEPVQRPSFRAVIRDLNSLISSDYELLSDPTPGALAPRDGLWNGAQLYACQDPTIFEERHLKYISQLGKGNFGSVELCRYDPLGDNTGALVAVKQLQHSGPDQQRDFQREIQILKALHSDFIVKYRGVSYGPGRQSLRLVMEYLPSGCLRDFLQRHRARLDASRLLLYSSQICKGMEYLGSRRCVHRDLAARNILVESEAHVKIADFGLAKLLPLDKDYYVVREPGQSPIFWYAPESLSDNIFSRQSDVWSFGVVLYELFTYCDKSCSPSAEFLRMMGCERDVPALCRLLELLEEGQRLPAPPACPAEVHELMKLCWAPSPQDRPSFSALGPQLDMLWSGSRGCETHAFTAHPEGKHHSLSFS
From the text: (§1) The assays described in Examples A, B, C and D for the determination of Tyk2, JAK1, JAK2 and JAK3 kinase activity, respectively, utilized the Omnia® Kinase fluorescence peptide substrate-based technology (Invitrogen). The specific components of the assay mixture are described in Examples A, B, C and D. In these assays, Mg^2+ is chelated upon phosphorylation of the Omnia peptide by the kinase to form a bridge between the chelation-enhanced fluorophore Sox and the phosphate, resulting in an increase in fluorescence emission at 485 nm when excited at […]. The reactions were therefore read at excitation 360 nm and emission was measured at 485 nm every 50 seconds for 45 minutes using a PerkinElmer EnVision Multilabel Plate Reader.
(§2) The final buffer conditions for Tyk2, JAK1, JAK2, and JAK3 assays were as follows: 25 mM HEPES, pH 7.4, 10 mM MgCl2, 0.01% Triton X-100 and 1 mM DTT.
(§3) Compounds were prepared at 50× the final concentration in DMSO by conducting 3-fold serial dilutions from a 500-μM intermediate dilution to give a 10-point dosing curve having a high dose of 10 μM. Two-μL aliquots of these were transferred to a fresh plate for a ten-fold intermediate dilution with assay buffer. Five-μL aliquots of the diluted compounds were then transferred to 20-μL of assay mixtures described in Examples A, B, C and D for a final concentration of DMSO of 2%. A standard or reference compound was typically included on each assay plate to validate that plate. For each plate, percent of control (POC) values were calculated for each well according to the following equation:
(§4) where Xmax=Average Uninhibited Controls • Xmin=Average Background IC50's were estimated from the POC's using a standard 4-parameter logistic model:
(§5) where • A=Minimum Y (Bottom Asymptote) • B=Maximum Y (Top Asymptote) • C=EC50 • D=Slope Factor • X=Compound Concentration (nM) • Y=POC
(§6) The IC50 is defined as the concentration of inhibitor at which the POC equals 50 for the fitted curve.
(§7) Compounds of Formula I were screened for their ability to inhibit JAK3 using the general enzyme inhibition assay method, in which the assay mixture contained 10 μM (Km app) or 1 mM ATP, 10 μM Omnia® Y7 peptide (Catalog #IVGN KNZ3071C, Invitrogen Corporation, Carlsbad, Calif.) and 2.5 nM JAK3 in a total volume of 20 μL. JAK3 was purchased from Invitrogen Corporation, Carlsbad, Calif. (catalog #IVGN PV4080).

[2] = biological target: T2, JAK1 (Homo sapiens, UniProt P23458); experiment: JAK1 Inhibition Assay (Omnia kinase fluorescence peptide substrate assay); conditions: averaged IC50 ranges; assay of Example B; 40 μM (Km app) or 1 mM ATP, 15 nM JAK1
T2 construct: purchased Invitrogen Corporation, Carlsbad, Calif; PV4775
T2 sequence (P23458 whole entry): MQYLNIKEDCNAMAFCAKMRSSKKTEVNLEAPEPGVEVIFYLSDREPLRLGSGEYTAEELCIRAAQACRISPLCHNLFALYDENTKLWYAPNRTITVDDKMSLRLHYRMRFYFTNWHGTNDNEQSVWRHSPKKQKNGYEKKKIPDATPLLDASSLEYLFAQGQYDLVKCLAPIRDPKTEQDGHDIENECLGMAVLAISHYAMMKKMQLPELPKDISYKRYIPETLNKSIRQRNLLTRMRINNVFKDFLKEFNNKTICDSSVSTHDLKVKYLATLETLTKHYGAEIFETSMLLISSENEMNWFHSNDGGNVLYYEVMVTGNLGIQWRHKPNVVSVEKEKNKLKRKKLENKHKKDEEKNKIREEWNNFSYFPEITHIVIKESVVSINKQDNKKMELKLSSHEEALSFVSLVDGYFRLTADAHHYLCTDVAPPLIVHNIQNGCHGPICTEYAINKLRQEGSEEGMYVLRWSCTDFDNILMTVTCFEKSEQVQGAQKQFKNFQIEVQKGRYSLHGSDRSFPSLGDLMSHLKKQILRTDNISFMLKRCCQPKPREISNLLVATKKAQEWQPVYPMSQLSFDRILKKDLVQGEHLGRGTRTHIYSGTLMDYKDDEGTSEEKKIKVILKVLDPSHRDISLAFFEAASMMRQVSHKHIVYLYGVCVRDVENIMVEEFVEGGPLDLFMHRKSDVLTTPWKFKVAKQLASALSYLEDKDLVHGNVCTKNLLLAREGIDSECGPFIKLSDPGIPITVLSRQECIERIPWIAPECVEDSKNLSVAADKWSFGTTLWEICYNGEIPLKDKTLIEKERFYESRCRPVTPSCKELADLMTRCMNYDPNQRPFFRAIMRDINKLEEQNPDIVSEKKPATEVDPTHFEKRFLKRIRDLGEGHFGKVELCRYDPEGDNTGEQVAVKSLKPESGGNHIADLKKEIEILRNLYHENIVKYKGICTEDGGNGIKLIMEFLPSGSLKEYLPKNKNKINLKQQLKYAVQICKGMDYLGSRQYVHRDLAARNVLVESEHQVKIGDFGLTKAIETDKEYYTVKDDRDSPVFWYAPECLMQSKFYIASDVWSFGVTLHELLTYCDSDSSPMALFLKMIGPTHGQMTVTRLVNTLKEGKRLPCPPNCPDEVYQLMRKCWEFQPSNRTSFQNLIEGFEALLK
From the text: as §1, §2, §3, §4, §5, §6
Compounds of Formula I were screened for their ability to inhibit JAK1 using the general enzyme inhibition assay method, in which the assay mixture contained 40 μM (Km app) or 1 mM ATP, 8 μM Omnia® Y12 peptide (Catalog #IVGN KPZ3121C; Invitrogen Corporation, Carlsbad, Calif.) and 15 nM JAK1 in a total volume of 20 μL. JAK1 was purchased from Invitrogen Corporation, Carlsbad, Calif. (catalog #IVGN PV4775).

[3] = biological target: T3, Human Tyk2 kinase domain (Homo sapiens, UniProt P29597); experiment: Tyk2 Inhibition Assay (Omnia kinase fluorescence peptide substrate assay); conditions: averaged IC50 ranges; assay of Example A; 10 μM (Km app) or 1 mM ATP, 2 nM Tyk2
T3 construct: comprising amino acids 886 to 1187 with 10 additional histidine residues; 10xHis (histidine tag) (C, cleaved yes); made in house
T3 sequence (P29597 886-1187): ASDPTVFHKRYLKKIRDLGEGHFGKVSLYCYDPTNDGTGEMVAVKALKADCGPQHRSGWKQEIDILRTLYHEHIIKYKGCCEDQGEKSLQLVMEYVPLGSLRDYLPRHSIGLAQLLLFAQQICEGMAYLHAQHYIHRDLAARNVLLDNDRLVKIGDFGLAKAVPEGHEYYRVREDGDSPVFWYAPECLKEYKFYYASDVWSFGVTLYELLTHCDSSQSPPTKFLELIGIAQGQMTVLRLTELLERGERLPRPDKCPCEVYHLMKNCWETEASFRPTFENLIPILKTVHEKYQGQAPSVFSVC
From the text: as §1, §2, §3, §4, §5, §6
Compounds of Formula I were screened for their ability to inhibit Tyk2 using the general enzyme inhibition assay method, in which the assay mixture contained 10 μM (Km app) or 1 mM ATP, 8 μM Omnia® Y12 peptide (Catalog #IVGN KPZ3121C; Invitrogen Corporation, Carlsbad, Calif.) and 2 nM Tyk2 in a total volume of 20 μL. Human Tyk2 kinase domain, comprising amino acids 886 to 1187 with 10 additional histidine residues (histidine tag) on the carboxy terminus, was expressed and purified from bacculovirus in-house at Array BioPharma Inc. (Boulder, Colo.). The histidine tag was cleaved after purification using standard conditions.

[4] = biological target: T4, JAK2 (Homo sapiens, UniProt O60674); experiment: JAK2 Inhibition Assay (Omnia kinase fluorescence peptide substrate assay); conditions: averaged IC50 ranges; assay of Example C; 25 μM (Km app) or 1 mM ATP, 5 nM JAK2
T4 construct: purchased Invitrogen Corporation, Carlsbad, Calif; PV4288
T4 sequence (O60674 whole entry): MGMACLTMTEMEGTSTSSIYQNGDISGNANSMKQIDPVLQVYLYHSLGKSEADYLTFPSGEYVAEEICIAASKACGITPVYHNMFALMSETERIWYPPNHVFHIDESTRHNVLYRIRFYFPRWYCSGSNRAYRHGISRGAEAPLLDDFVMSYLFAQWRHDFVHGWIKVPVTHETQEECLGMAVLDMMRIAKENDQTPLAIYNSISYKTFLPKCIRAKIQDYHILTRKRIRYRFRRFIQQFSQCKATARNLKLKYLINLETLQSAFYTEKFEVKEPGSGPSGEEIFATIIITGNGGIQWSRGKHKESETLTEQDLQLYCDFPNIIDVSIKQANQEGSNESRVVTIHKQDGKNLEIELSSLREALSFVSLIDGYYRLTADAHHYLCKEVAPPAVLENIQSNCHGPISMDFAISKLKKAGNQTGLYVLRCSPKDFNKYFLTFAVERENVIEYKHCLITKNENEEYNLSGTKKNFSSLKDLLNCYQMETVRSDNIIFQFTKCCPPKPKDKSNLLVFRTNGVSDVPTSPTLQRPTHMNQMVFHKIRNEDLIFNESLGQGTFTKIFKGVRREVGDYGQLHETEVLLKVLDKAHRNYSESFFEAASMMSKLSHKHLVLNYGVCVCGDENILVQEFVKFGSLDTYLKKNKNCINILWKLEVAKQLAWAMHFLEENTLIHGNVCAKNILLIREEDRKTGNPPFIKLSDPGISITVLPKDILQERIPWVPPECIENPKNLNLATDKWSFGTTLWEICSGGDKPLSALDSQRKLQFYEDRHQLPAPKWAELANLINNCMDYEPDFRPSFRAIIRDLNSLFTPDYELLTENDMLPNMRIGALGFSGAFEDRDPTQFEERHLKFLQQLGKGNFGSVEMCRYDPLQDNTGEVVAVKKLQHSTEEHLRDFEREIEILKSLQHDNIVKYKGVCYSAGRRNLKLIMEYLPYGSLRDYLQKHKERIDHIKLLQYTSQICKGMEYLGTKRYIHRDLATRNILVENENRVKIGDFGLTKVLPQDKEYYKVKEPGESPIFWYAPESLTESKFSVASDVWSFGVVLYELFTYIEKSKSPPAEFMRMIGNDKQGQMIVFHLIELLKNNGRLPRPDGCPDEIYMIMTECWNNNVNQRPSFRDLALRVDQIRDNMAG
From the text: as §1, §2, §3, §4, §5, §6
as §7, with “inhibit JAK2” for “inhibit JAK3”, “contained 25” for “contained 10”, “and 5” for “and 2.5”, “nM JAK2” for “nM JAK3”, “μL. JAK2” for “μL. JAK3”, “#IVGN PV4288).” for “#IVGN PV4080).”

IC50 [1] [nM] | IC50 [2] [nM] | IC50 [3] [nM] | IC50 [4] [nM] | Compound
> 1000 | 100 to 1000 | 10 to 100 | 100 to 1000 | Cn1cc(-c2cc3nccn3c(-c3cnn(C4(CC#N)CN(CCC(F)(F)F)C4)c3)n2)cn1 [Example 86, 2-(3-(4-(7-(1-methyl-1H-pyrazol-4-yl)imidazo[1,2-c]pyrimidin-5-yl)-1H-pyrazol-1-yl)-1-(3,3,3-trifluoropropyl)azetidin-3-yl)acetonitrile]
100 to 1000 | 10 to 100 | < 10 | 10 to 100 | Cn1cc(-c2cc3nccn3c(-c3cnn(C(CC#N)C4CC4(F)F)c3)n2)cn1 (mixture of isomers) [Example 147, 3-(2,2-difluorocyclopropyl)-3-(4-(7-(1-methyl-1H-pyrazol-4-yl)imidazo[1,2-c]pyrimidin-5-yl)-1H-pyrazol-1-yl)propanenitrile]
100 to 1000 | 10 to 100 | < 10 | 10 to 100 | Cn1cc(-c2cc3nccn3c(-c3ccn(C(CC#N)C4CC4)c3)n2)cn1 (centres unmarked) [Example 126, 3-Cyclopropyl-3-(3-(7-(1-methyl-1H-pyrazol-4-yl)imidazo[1,2-c]pyrimidin-5-yl)-1H-pyrrol-1-yl)propanenitrile]
100 to 1000 | 100 to 1000 | < 10 | 10 to 100 | Cn1cc(-c2cc3nccn3c(-c3cnn(C4(CC#N)CC5(CCC5)C4)c3)n2)cn1 [Example 160, 2-(2-(4-(7-(1-methyl-1H-pyrazol-4-yl)imidazo[1,2-c]pyrimidin-5-yl)-1H-pyrazol-1-yl)spiro[3.3]heptan-2-yl)acetonitrile]
> 1000 | 100 to 1000 | 10 to 100 | 100 to 1000 | Cn1cc(-c2cc3nccn3c(-c3cnn(C(CC#N)CC(C)(C)C)c3)n2)cn1 (centres unmarked) [Example 5]
> 1000 | 100 to 1000 | 10 to 100 | 100 to 1000 | Cc1cc(-c2cc3nccn3c(-c3cnn(C(CC#N)C4CC4)c3)n2)ccn1 (centres unmarked) [Example 50, 3-cyclopropyl-3-(4-(7-(2-methylpyridin-4-yl)imidazo[1,2-c]pyrimidin-5-yl)-1H-pyrazol-1-yl)propanenitrile]
100 to 1000 | 10 to 100 | < 10 | 10 to 100 | N#CCC(C1CC1)n1cc(-c2nc(-c3ccc(N4CC5CCC(C4)O5)cc3)cc3nccn23)cn1 (centres unmarked) [Example 58, 3-(4-(7-(4-(8-Oxa-3-azabicyclo[3.2.1]octan-3-yl)phenyl)imidazo[1,2-c]pyrimidin-5-yl)-1H-pyrazol-1-yl)-3-cyclopropylpropanenitrile]
> 1000 | 10 to 100 | < 10 | 10 to 100 | Cc1ncc(-c2cc3nccn3c(-c3cnn(C4(CC#N)CN(S(=O)(=O)C5CC5)C4)c3)n2)s1 [Example 140, 2-(1-(cyclopropylsulfonyl)-3-(4-(7-(2-methylthiazol-5-yl)imidazo[1,2-c]pyrimidin-5-yl)-1H-pyrazol-1-yl)azetidin-3-yl)acetonitrile]
> 1000 | 100 to 1000 | 10 to 100 | 100 to 1000 | CCCN1CC(CC#N)(n2cc(-c3nc(-c4cnn(C)c4)cc4nccn34)cn2)C1 [Example 81, 2-(3-(4-(7-(1-methyl-1H-pyrazol-4-yl)imidazo[1,2-c]pyrimidin-5-yl)-1H-pyrazol-1-yl)-1-propylazetidin-3-yl)acetonitrile]
> 1000 | > 1000 | 100 to 1000 | > 1000 | Cn1cc(-c2cc3nccn3c(-c3ccn(C4(CC#N)CN(C(=O)OC(C)(C)C)C4)n3)n2)cn1 [Example 129, Tert-butyl 3-(cyanomethyl)-3-(3-(7-(1-methyl-1H-pyrazol-4-yl)imidazo[1,2-c]pyrimidin-5-yl)-1H-pyrazol-1-yl)azetidine-1-carboxylate]
> 1000 | > 1000 | 10 to 100 | 100 to 1000 | CCN1CC(CC#N)(n2cc(-c3nc(-c4cnn(C)c4)cc4nccn34)cn2)C1 [Example 72, 2-(1-ethyl-3-(4-(7-(1-methyl-1H-pyrazol-4-yl)imidazo[1,2-c]pyrimidin-5-yl)-1H-pyrazol-1-yl)azetidin-3-yl)acetonitrile]
